# Assay results published in patent US20080194585A1, “Fungicidal Pyrazine Derivatives” (priority 2005, published 2008).
# Marks after values point to notes of the source that are not given here.
# Assays:
# Plasmopara viticola = test: Test D: grape downy mildew, spray after inoculation of grape seedlings; assay type: in vivo
# From the text: Upon removal, disease ratings were made. […] A dash (-) indicates no test results.
# Phytophthora infestans = test: whole plant or invertebrate; assay type: in vivo
# Septoria tritici = test: Test J: wheat leaf blotch, preventive spray on wheat seedlings; assay type: in vivo
# From the text: A dash (-) indicates no test results.
# [1] = system: Puccinia recondita f. sp. tritici; test: Test K: wheat leaf rust, preventive spray on wheat seedlings
# Botrytis cinerea = test: Test E: tomato botrytis, preventive spray on tomato seedlings
# Septoria nodorum = test: Test H: wheat glum blotch, preventive spray on wheat seedlings
# Description: (the causal agent of wheat glum blotch) and incubated in a saturated atmosphere at 20° C. for 48 h, and then moved to a growth chamber at 22° C. for 5 days, after which disease ratings were made.
# [2] = system: Erysiphe graminis f. sp. tritici; test: Test L: wheat powdery mildew, preventive spray on wheat seedlings
# Sclerotinia sclerotiorum = test: Test C: cucumber white mold, preventive spray on cucumber seedlings
# Pythium aphanidermatum = test: Test A: bluegrass pythium blight, preventive spray on bluegrass seedlings
# Rhizoctonia oryzae = test: Test G: turf brown patch, preventive spray on creeping bent grass seedlings
# Description: (the causal agent of turf brown patch) and incubated in a saturated atmosphere at 27° C. for 24 h, and then moved to a growth chamber at 27° C. for 5 days, after which disease ratings were made.
# [3] = system: Colletotrichum orbiculare; test: Test B: cucumber Colletotrichum anthracnose, preventive spray on cucumber seedlings
compound,measurement,setting,value
Cc1cccc(C)c1-c1c(Cl)nc(-n2cncn2)c(=O)n1CC(C)C [compound 205],Test D disease control rating,Plasmopara viticola; 200 ppm,12%
same,Test F disease control rating,Phytophthora infestans; 200 ppm,0%
same,Test J disease control rating,Septoria tritici; 200 ppm,100%
same,Test K disease control rating,[1]; 200 ppm,97%
same,Test E disease control rating,Botrytis cinerea; 200 ppm,100%
same,Test H disease control rating,Septoria nodorum; 200 ppm,0%
same,Test L disease control rating,[2]; 200 ppm,81%
same,Test C disease control rating,Sclerotinia sclerotiorum; 200 ppm,0%
same,Test A disease control rating,Pythium aphanidermatum; 200 ppm,0%
same,Test G disease control rating,Rhizoctonia oryzae; 200 ppm,85%
same,Test B disease control rating,[3]; 200 ppm,0%
CC(C)Cn1c(C(C)(C)C)c(Cl)nc(-n2cncn2)c1=O [compound 206],Test D disease control rating,Plasmopara viticola; 200 ppm,8%
same,Test F disease control rating,Phytophthora infestans; 200 ppm,0%
same,Test J disease control rating,Septoria tritici; 200 ppm,3%
same,Test K disease control rating,[1]; 200 ppm,0%
same,Test E disease control rating,Botrytis cinerea; 200 ppm,0%
same,Test H disease control rating,Septoria nodorum; 200 ppm,0%
same,Test L disease control rating,[2]; 200 ppm,56%
same,Test C disease control rating,Sclerotinia sclerotiorum; 200 ppm,0%
same,Test A disease control rating,Pythium aphanidermatum; 200 ppm,0%
same,Test G disease control rating,Rhizoctonia oryzae; 200 ppm,0%
same,Test B disease control rating,[3]; 200 ppm,0%
CC(C)Cn1c(C(C)C)c(Cl)nc(-n2cncn2)c1=O [compound 207],Test D disease control rating,Plasmopara viticola; 200 ppm,8%
same,Test F disease control rating,Phytophthora infestans; 200 ppm,0%
same,Test J disease control rating,Septoria tritici; 200 ppm,70%
same,Test K disease control rating,[1]; 200 ppm,0%
same,Test E disease control rating,Botrytis cinerea; 200 ppm,50%
same,Test H disease control rating,Septoria nodorum; 200 ppm,0%
same,Test L disease control rating,[2]; 200 ppm,95%
same,Test C disease control rating,Sclerotinia sclerotiorum; 200 ppm,0%
same,Test A disease control rating,Pythium aphanidermatum; 200 ppm,0%
same,Test G disease control rating,Rhizoctonia oryzae; 200 ppm,47%
same,Test B disease control rating,[3]; 200 ppm,0%
Cc1ccnc(-c2nc(Cl)c(-c3c(F)cccc3F)n(CC(C)C)c2=O)c1 [compound 208],Test D disease control rating,Plasmopara viticola; 200 ppm,12%
same,Test F disease control rating,Phytophthora infestans; 200 ppm,0%
same,Test J disease control rating,Septoria tritici; 200 ppm,100%
same,Test K disease control rating,[1]; 200 ppm,88%
same,Test E disease control rating,Botrytis cinerea; 200 ppm,92%
same,Test H disease control rating,Septoria nodorum; 200 ppm,69%
same,Test L disease control rating,[2]; 200 ppm,0%
same,Test C disease control rating,Sclerotinia sclerotiorum; 200 ppm,0%
same,Test A disease control rating,Pythium aphanidermatum; 200 ppm,0%
same,Test G disease control rating,Rhizoctonia oryzae; 200 ppm,0%
same,Test B disease control rating,[3]; 200 ppm,46%
Cc1cccnc1-c1nc(Cl)c(-c2c(F)cccc2F)n(CC(C)C)c1=O [compound 210],Test D disease control rating,Plasmopara viticola; 200 ppm,16%
same,Test F disease control rating,Phytophthora infestans; 200 ppm,0%
same,Test J disease control rating,Septoria tritici; 200 ppm,1%
same,Test K disease control rating,[1]; 200 ppm,0%
same,Test E disease control rating,Botrytis cinerea; 200 ppm,0%
same,Test H disease control rating,Septoria nodorum; 200 ppm,0%
same,Test L disease control rating,[2]; 200 ppm,0%
same,Test C disease control rating,Sclerotinia sclerotiorum; 200 ppm,0%
same,Test A disease control rating,Pythium aphanidermatum; 200 ppm,0%
same,Test G disease control rating,Rhizoctonia oryzae; 200 ppm,0%
same,Test B disease control rating,[3]; 200 ppm,0%
COC=C(C)n1c(-c2c(F)cccc2F)c(Cl)nc(-n2cccn2)c1=O [compound 211],Test D disease control rating,Plasmopara viticola; 40 ppm (*),4* %
same,Test F disease control rating,Phytophthora infestans; 40 ppm (*),0* %
same,Test J disease control rating,Septoria tritici; 40 ppm (*),25* %
same,Test K disease control rating,[1]; 40 ppm (*),27* %
same,Test E disease control rating,Botrytis cinerea; 40 ppm (*),0* %
same,Test H disease control rating,Septoria nodorum; 40 ppm (*),0* %
same,Test L disease control rating,[2]; 40 ppm (*),0* %
same,Test C disease control rating,Sclerotinia sclerotiorum; 40 ppm (*),0* %
same,Test A disease control rating,Pythium aphanidermatum; 40 ppm (*),0* %
same,Test G disease control rating,Rhizoctonia oryzae; 40 ppm (*),0* %
same,Test B disease control rating,[3]; 40 ppm (*),0* %
COC=C(C)n1c(-c2c(F)cccc2F)c(Cl)nc(-n2cncn2)c1=O [compound 212],Test D disease control rating,Plasmopara viticola; 40 ppm (*),8* %
same,Test F disease control rating,Phytophthora infestans; 40 ppm (*),0* %
same,Test J disease control rating,Septoria tritici; 40 ppm (*),0* %
same,Test K disease control rating,[1]; 40 ppm (*),0* %
same,Test E disease control rating,Botrytis cinerea; 40 ppm (*),0* %
same,Test H disease control rating,Septoria nodorum; 40 ppm (*),0* %
same,Test L disease control rating,[2]; 40 ppm (*),0* %
same,Test C disease control rating,Sclerotinia sclerotiorum; 40 ppm (*),0* %
same,Test A disease control rating,Pythium aphanidermatum; 40 ppm (*),0* %
same,Test G disease control rating,Rhizoctonia oryzae; 40 ppm (*),0* %
same,Test B disease control rating,[3]; 40 ppm (*),0* %
CC(CO)n1c(-c2c(F)cccc2F)c(Cl)nc(-n2cccn2)c1=O (stereo not drawn) [compound 213],Test D disease control rating,Plasmopara viticola; 40 ppm (*),32* %
same,Test F disease control rating,Phytophthora infestans; 40 ppm (*),0* %
same,Test J disease control rating,Septoria tritici; 40 ppm (*),0* %
same,Test K disease control rating,[1]; 40 ppm (*),92* %
same,Test E disease control rating,Botrytis cinerea; 40 ppm (*),41* %
same,Test H disease control rating,Septoria nodorum; 40 ppm (*),0* %
same,Test L disease control rating,[2]; 40 ppm (*),0* %
same,Test C disease control rating,Sclerotinia sclerotiorum; 40 ppm (*),0* %
same,Test A disease control rating,Pythium aphanidermatum; 40 ppm (*),0* %
same,Test G disease control rating,Rhizoctonia oryzae; 40 ppm (*),0* %
same,Test B disease control rating,[3]; 40 ppm (*),0* %
CC(CCl)n1c(-c2c(F)cccc2F)c(Cl)nc(-n2cncn2)c1=O (stereo not drawn) [compound 214],Test D disease control rating,Plasmopara viticola; 40 ppm (*),12* %
same,Test F disease control rating,Phytophthora infestans; 40 ppm (*),0* %
same,Test J disease control rating,Septoria tritici; 40 ppm (*),9* %
same,Test K disease control rating,[1]; 40 ppm (*),69* %
same,Test E disease control rating,Botrytis cinerea; 40 ppm (*),0* %
same,Test H disease control rating,Septoria nodorum; 40 ppm (*),0* %
same,Test L disease control rating,[2]; 40 ppm (*),0* %
same,Test C disease control rating,Sclerotinia sclerotiorum; 40 ppm (*),0* %
same,Test A disease control rating,Pythium aphanidermatum; 40 ppm (*),0* %
same,Test G disease control rating,Rhizoctonia oryzae; 40 ppm (*),0* %
same,Test B disease control rating,[3]; 40 ppm (*),0* %
